Active and inactive are the calls of the source. No cut-off for these calls is given here.
Key:
[1] = biological target: T1, Polyunsaturated fatty acid 5-lipoxygenase (Homo sapiens, UniProt P09917); test: Inhibition of 5-LOX in human PMNL cells; type: cell-based
T1 sequence (P09917 whole entry): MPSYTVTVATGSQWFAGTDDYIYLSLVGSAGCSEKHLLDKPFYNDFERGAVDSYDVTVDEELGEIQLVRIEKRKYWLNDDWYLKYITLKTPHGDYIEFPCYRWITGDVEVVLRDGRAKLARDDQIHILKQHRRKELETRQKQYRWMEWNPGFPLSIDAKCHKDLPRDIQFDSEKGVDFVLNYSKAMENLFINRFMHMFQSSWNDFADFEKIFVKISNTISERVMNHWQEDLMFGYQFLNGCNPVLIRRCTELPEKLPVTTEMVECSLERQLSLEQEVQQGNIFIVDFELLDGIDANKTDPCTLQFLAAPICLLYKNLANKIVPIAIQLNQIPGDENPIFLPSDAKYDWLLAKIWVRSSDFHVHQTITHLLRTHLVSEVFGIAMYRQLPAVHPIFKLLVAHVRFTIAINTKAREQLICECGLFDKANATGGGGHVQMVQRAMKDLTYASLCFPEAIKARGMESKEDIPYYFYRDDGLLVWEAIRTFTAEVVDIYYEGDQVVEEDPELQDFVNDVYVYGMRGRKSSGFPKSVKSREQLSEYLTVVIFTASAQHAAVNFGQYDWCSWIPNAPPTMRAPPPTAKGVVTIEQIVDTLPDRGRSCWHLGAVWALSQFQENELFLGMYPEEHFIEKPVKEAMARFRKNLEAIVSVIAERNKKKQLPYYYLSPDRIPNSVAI

[2] = biological target: T2, Polyunsaturated fatty acid lipoxygenase ALOX15 (Homo sapiens) (UniProt P16050); test: Inhibition of 15-lipoxygenase in human PMNL cells using arachidonic acid as substrate assessed as residual activity at 10 uM preincubated with compound for 15 mins followed by A23187 and substrate addition and measured after 10 mins by HPLC analysis relative to control; type: cell-based; details: time 25.0 min
T2 sequence (whole entry): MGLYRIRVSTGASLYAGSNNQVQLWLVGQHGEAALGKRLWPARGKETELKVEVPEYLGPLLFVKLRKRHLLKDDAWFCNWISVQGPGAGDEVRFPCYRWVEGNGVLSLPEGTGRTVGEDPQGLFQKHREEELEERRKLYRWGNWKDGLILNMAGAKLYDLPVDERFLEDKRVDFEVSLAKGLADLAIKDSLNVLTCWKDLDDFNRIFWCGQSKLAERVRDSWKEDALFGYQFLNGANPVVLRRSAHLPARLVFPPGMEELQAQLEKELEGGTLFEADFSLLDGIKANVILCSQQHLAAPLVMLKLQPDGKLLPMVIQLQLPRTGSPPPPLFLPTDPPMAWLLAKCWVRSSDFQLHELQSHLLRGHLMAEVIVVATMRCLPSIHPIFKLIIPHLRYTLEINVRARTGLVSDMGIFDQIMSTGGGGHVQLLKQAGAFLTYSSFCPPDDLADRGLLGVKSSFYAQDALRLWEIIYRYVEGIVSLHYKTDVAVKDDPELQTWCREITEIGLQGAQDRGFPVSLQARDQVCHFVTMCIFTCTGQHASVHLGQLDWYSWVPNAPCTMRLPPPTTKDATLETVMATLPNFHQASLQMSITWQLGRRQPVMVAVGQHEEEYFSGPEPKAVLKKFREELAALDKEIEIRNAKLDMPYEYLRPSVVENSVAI

[3] = biological target: T1, Polyunsaturated fatty acid 5-lipoxygenase; test: Inhibition of 5-lipoxygenase in human PMNL cells using arachidonic acid as substrate preincubated with compound for 15 mins followed by A23187 and substrate addition and measured after 10 mins by HPLC analysis; type: cell-based
[4] = Antioxidant activity assessed as quercetin equivalent of Ferric ion TPTZ reducing activity incubated for 6 mins by FRAP assay; type: functional
[5] = biological target: T3, Polyunsaturated fatty acid lipoxygenase ALOX12 (Homo sapiens) (UniProt P18054); test: Inhibition of 12-lipoxygenase in human PMNL cells using arachidonic acid as substrate assessed as residual activity at 1 uM preincubated with compound for 15 mins followed by A23187 and substrate addition and measured after 10 mins by HPLC analysis relative to control; type: cell-based; details: time 25.0 min
T3 sequence (whole entry): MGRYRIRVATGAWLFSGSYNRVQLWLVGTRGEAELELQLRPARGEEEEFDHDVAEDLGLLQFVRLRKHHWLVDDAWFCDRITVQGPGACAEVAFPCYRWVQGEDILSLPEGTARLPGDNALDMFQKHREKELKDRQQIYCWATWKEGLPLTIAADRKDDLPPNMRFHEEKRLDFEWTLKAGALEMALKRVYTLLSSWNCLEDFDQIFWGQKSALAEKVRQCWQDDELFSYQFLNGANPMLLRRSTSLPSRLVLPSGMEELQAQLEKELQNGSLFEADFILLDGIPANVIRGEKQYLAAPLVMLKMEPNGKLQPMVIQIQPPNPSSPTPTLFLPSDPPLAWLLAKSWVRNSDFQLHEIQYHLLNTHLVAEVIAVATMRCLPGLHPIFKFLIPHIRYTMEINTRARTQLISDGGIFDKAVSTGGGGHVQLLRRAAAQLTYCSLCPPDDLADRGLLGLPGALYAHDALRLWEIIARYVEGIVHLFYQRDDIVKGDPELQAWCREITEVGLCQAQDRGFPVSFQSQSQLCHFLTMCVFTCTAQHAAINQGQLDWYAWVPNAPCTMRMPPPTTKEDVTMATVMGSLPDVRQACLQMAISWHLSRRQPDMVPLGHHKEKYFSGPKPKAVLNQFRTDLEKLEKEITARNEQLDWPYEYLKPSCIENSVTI

[6] = biological target: T1, Polyunsaturated fatty acid 5-lipoxygenase; test: Inhibition of recombinant human 5-lipoxygenase expressed in Escherichia coli BL21 using arachidonic acid as substrate preincubated for 5 to 10 mins with compound followed by substrate addition and measured after 10 mins by HPLC analysis
[7] = Antioxidant activity assessed as DPPH radical scavenging activity by ultraviolet spectrophotometric analysis; type: functional
[8] = biological target: T3, Polyunsaturated fatty acid lipoxygenase ALOX12 (Homo sapiens); test: Inhibition of 12-lipoxygenase in human PMNL cells using arachidonic acid as substrate assessed as residual activity at 10 uM preincubated with compound for 15 mins followed by A23187 and substrate addition and measured after 10 mins by HPLC analysis relative to control; type: cell-based; details: time 25.0 min
[9] = biological target: T2, Polyunsaturated fatty acid lipoxygenase ALOX15 (Homo sapiens); test: Inhibition of 15-lipoxygenase in human PMNL cells using arachidonic acid as substrate assessed as residual activity at 1 uM preincubated with compound for 15 mins followed by A23187 and substrate addition and measured after 10 mins by HPLC analysis relative to control; type: cell-based; details: time 25.0 min
[10] = tested on: Mus musculus; test: Antiinflammatory activity in carrageenan induced mouse paw edema model assessed as reduction in hind paw swelling at 0.1 to 10 mg/kg, ip preadministered with compound for 30 mins followed by carrageenan administration and measured upto 72 hrs by hydroplethismometer; type: functional, organism-based; details: dose 0.1-10 mg/kg, time <= 72.5 hrs
[11] = tested on: Mus musculus; test: Antiinflammatory activity against zymosan-induced air pouch mouse model assessed as inhibition of cell migration at 0.1 mg/kg, ip preadministered with compound for 30 mins followed by sterile air injection three days once for 6 days and measured 4 hrs after zymosan administration by optical microscopic analysis; type: functional, organism-based; details: time 148.5 hrs
[12] = tested on: Mus musculus; test: Anti-inflammatory activity against OVA-sensitized isolated perfused lung mouse model assessed as reduction in Ach-induced bronchoconstriction at 0.1 to 1 mg/kg, ip preadministered with compound for 30 mins followed by OVA challenge and measured 24 hrs after last aerosolized OVA challenge; type: functional, organism-based; details: dose 0.1-1 mg/kg, time 24.5 hrs

Row | Structure (SMILES) | IC50 [1] | Activity [2] | IC50 [3] | EC50 [4] | Activity [5] | IC50 [6] | EC50 [7] | Activity [8] | Activity [9] | Activity [10] | Activity [11] | Activity [12]
1 | COC1=CC(=O)C(O)=C(C[C@]2(C)CC[C@@]3(C)C(C)=CCC[C@@H]3[C@@H]2C)C1=O | 10 µM |  |  |  |  |  |  |  |  |  |  | 
2 | Oc1ccc(-c2ccc3c(c2)OCCO3)cc1O |  | 84.8% | 0.24 µM | 70 µM | 74% | 0.04 µM | 71 µM | 89.6% |  |  |  | 
3 | Oc1ccc(-c2ccc(Cl)cc2)cc1O |  | 91.4% | 0.26 µM | 560 µM |  | 0.02 µM | 64 µM | 74.9% |  |  |  | 
4 | Oc1ccc(-c2c3ccccc3cc3ccccc23)cc1O |  |  | 2.34 µM | 890 µM |  | 0.01 µM | 51 µM | 49.4% | 114% |  |  | 
5 | Oc1ccc(-c2cccc3c2oc2ccccc23)cc1O |  | 70.3% | 0.21 µM | 3080 µM |  | 0.076 µM | 54 µM | 69.5% |  | Active | Active | Active
6 | Oc1ccc(-c2ccc(O)c(O)c2)cc1 |  | 80.8% | 1.33 µM | 650 µM |  | 0.21 µM | 275 µM | 75% |  |  |  | 
7 | Oc1ccc(-c2ccc3ccccc3c2)cc1O |  | 57.2% | 0.32 µM | 370 µM |  | 0.007 µM | 53 µM | 93.8% |  |  |  | 
8 | CCCCCCCCCCCCc1c(O)c(O)cc(OC)c1OC | 0.03 µM |  |  |  |  |  |  |  |  |  |  | 
9 | Oc1ccc(-c2cc3ccccc3o2)cc1O |  | 71.1% | 1.11 µM | 460 µM |  | 0.03 µM | 49 µM | 80.6% |  |  |  | 
10 | Oc1ccc(-c2cccc3c2Sc2ccccc2S3)cc1O |  |  | 0.23 µM |  |  | 0.008 µM |  |  |  |  |  | 
11 | CCOc1ccc2ccccc2c1-c1ccc(O)c(O)c1 |  | 82.8% | 0.27 µM | 970 µM |  | 0.01 µM | 37 µM | 88.8% |  |  |  | 
12 | CC(c1cc2ccccc2s1)N(O)C(N)=O (stereo not drawn) |  |  |  |  |  |  |  |  |  |  |  | Active
13 | Oc1ccc(-c2cccc3c2sc2ccccc23)cc1O |  | 70.5% | 0.25 µM | 1380 µM |  | 0.007 µM | 82 µM | 71.5% |  |  |  | 
14 | O=C1C=C(O)C(=O)C(CC2CCC3CCCCC3C2)=C1O (stereo not drawn) | 10 µM |  |  |  |  |  |  |  |  |  |  | 
15 | Oc1cc(O)c(O)c(CC2CCC3CCCCC3C2)c1O (stereo not drawn) | 4.4 µM |  |  |  |  |  |  |  |  |  |  | 
16 | Oc1ccc(-c2cccc(Cl)c2)cc1O |  | 84.1% | 0.21 µM | 610 µM |  | 0.02 µM | 74 µM | 86.6% |  |  |  | 
17 | Oc1ccc(-c2ccccc2)cc1O |  | 112% | 0.47 µM | 190 µM |  | 0.05 µM | 46 µM | 86.1% |  |  |  | 
18 | CCCCCCCCCCCC1=C(O)C(=O)C=C(O)C1=O [EMBELIN] | 1.5 µM |  |  |  |  |  |  |  |  |  |  | 
